Measured values reported in ChEMBL document CHEMBL1144970, “Protective effects of steroid saponins from Paris polyphylla var. yunnanensis on ethanol- or indomethacin-induced gastric mucosal lesions in rats: structural requirement for activity and mode of action” (Bioorg Med Chem Lett, 2003).

What was measured:
[1] = test system: Rattus norvegicus; experiment: Acid output from the stomach (control value = 120.3+/-19.7) in pylorus ligated rats (5 mg/kg po of the Compound was administered 1 hr before the pylorus ligation); format: functional
[2] = test system: Rattus norvegicus; experiment: Volume of the gastric juice (Control value = 4.7+/-0.4) of stomach content of pylorus ligated rats was measured (20 mg/kg po of the Compound was administered 1 hr before the pylorus ligation); format: functional
[3] = test system: Rattus norvegicus; experiment: Percent inhibition of gastric lesions induced by ethanol was measured, after administration of 10 mg/kg po in rats; format: functional; conditions: Stomach
[4] = test system: Rattus norvegicus; experiment: Acid output from the stomach (control value = 120.3+/-19.7) in pylorus ligated rats (10 mg/kg po of the Compound was administered 1 hr before the pylorus ligation); format: functional
[5] = test system: Rattus norvegicus; experiment: Percent inhibition of gastric lesions induced by endomethacin was measured, after administration of 5 mg/kg po in rats; format: functional; conditions: Stomach
[6] = test system: Rattus norvegicus; experiment: pH of the gastric juice (Control value = 1.42+/-0.02) of stomach content of pylorus ligated rats was measured (5 mg/kg po of the Compound was administered 1 hr before the pylorus ligation); format: ADME, organism-based; conditions: in vivo
[7] = test system: Rattus norvegicus; experiment: Percent inhibition of gastric lesions induced by ethanol was measured, after administration of 15 mg/kg po in rats; format: functional; conditions: Stomach
[8] = test system: Rattus norvegicus; experiment: Percent inhibition of gastric lesions induced by endomethacin was measured, after administration of 2.5 mg/kg po in rats; format: functional; conditions: Stomach
[9] = test system: Rattus norvegicus; experiment: Volume of the gastric juice (Control value = 4.7+/-0.4) of stomach content of pylorus ligated rats was measured (5 mg/kg po of the Compound was administered 1 hr before the pylorus ligation); format: functional
[10] = test system: Rattus norvegicus; experiment: Reduction in length (control value = 159.2+/-21) of gastric lesions induced by endomethacin was measured, after administration of 20 mg/kg po in rats; format: functional, Stomach
[11] = test system: Rattus norvegicus; experiment: Reduction in length (control value = 59.8+/-6) of gastric lesions induced by endomethacin was measured, after administration of 2.5 mg/kg po in rats; format: functional, Stomach
[12] = test system: Rattus norvegicus; experiment: Reduction in length (control value = 159.2+/-21) of gastric lesions induced by ethanol was measured, after administration of 10 mg/kg po in rats; format: functional, Stomach
[13] = test system: Rattus norvegicus; experiment: Percent inhibition of gastric lesions induced by endomethacin was measured, after administration of 7.5 mg/kg po in rats; format: functional; conditions: Stomach
[14] = test system: Rattus norvegicus; experiment: Volume of the gastric juice (Control value = 4.7+/-0.4) of stomach content of pylorus ligated rats was measured (10 mg/kg po of the Compound was administered 1 hr before the pylorus ligation); format: functional
[15] = test system: Rattus norvegicus; experiment: Reduction in length (control value = 59.8+/-6) of gastric lesions induced by endomethacin was measured, after administration of 7.5 mg/kg po in rats; format: functional, Stomach
[16] = test system: Rattus norvegicus; experiment: pH of the gastric juice (Control value = 1.42+/-0.02) of stomach content of pylorus ligated rats was measured (10 mg/kg po of the Compound was administered 1 hr before the pylorus ligation); format: ADME, organism-based; conditions: in vivo
[17] = test system: Rattus norvegicus; experiment: Acid output from the stomach (control value = 120.3+/-19.7) in pylorus ligated rats (20 mg/kg po of the Compound was administered 1 hr before the pylorus ligation); format: functional
[18] = test system: Rattus norvegicus; experiment: Reduction in length (control value = 59.8+/-6) of gastric lesions induced by endomethacin was measured, after administration of 5 mg/kg po in rats; format: functional, Stomach
[19] = test system: Rattus norvegicus; experiment: pH of the gastric juice (Control value = 1.42+/-0.02) of stomach content of pylorus ligated rats was measured (20 mg/kg po of the Compound was administered 1 hr before the pylorus ligation); format: ADME, organism-based; conditions: in vivo
[20] = test system: Rattus norvegicus; experiment: Percent inhibition of gastric lesions induced by endomethacin was measured, after administration of 10 mg/kg po in rats; format: functional; conditions: Stomach
[21] = test system: Rattus norvegicus; experiment: Percent inhibition of gastric lesions induced by ethanol was measured, after administration of 20 mg/kg po in rats; format: functional; conditions: Stomach
[22] = test system: Rattus norvegicus; experiment: Reduction in length (control value = 159.2+/-21) of gastric lesions induced by ethanol was measured, after administration of 15 mg/kg po in rats; format: functional, Stomach

COc1ccc2[nH]c([S+]([O-])Cc3ncc(C)c(OC)c3C)nc2c1 (configuration not stated) [OMEPRAZOLE]
Acid output [1]: 62.6 u equiv hr-1
Volume [2]: 2.2 ml 4hr-1
inhibition in vivo at 10 mg/kg [3]: 43.1%
Acid output [4]: 46.8 u equiv hr-1
inhibition in vivo at 5 mg/kg [5]: 58.9%
pH [6]: 1.63
inhibition in vivo at 15 mg/kg [7]: 82%
inhibition in vivo at 2.5 mg/kg [8]: 42.5%
Volume [9]: 3.3 ml 4hr-1
Length [10]: 16.9 mm
Length [11]: 34.4 mm
Length [12]: 90.6 mm
inhibition in vivo at 7.5 mg/kg [13]: 86.6%
Volume [14]: 2.5 ml 4hr-1
Length [15]: 8 mm
pH [16]: 1.8
Acid output [17]: 14.6 u equiv hr-1
Length [18]: 24.6 mm
pH [19]: 5.54
inhibition in vivo at 10 mg/kg [20]: 98.2%
inhibition in vivo at 20 mg/kg [21]: 89.4%
Length [22]: 28.6 mm
